Laboratory results published in patent US20060211573A1, “7-(Akenylamino)triazolopyrimidines, method for the production thereof and use thereof in controlling harmful fungi and substances containing said triazolopyrimidines” (priority 2003, published 2006).

System: Alternaria solani
Test: Activity against early blight of tomato caused by Alternaria solani (protective spray on tomato leaves)
Format: in vivo
Settings: 250 ppm active compound, sprayed one day before infection, assessed after 5 days; untreated plants 100% infected
Protocol: The active compounds were prepared, separately or together, as a stock solution with 0.25% by weight of active compound in acetone or DMSO. 1% by weight of the emulsi-fier Uniperol® EL (wetting agent with an emulsifying and dispersing action based on ethoxylated alkylphenols) was added to this solution and appropriately diluted with water to the desired concentration. Leaves of pot plants of the variety “Grope Fleischtomate St. Pierre” were sprayed to runoff point with an aqueous suspension in the active compound concentration given below. On the following day, the leaves were infected with an aqueous suspension of spores of Alternaria solani in 2% Biomalz solution with a concentration of 0.17×10^6 spores/ml. The plants were subsequently placed in a chamber saturated with water vapor at temperatures between 20 and 22° C. After 5 days, leaf infection in the untreated but infected control plants had so extensively developed that the infection could be visually determined in %.

## C=CC(C)Nc1c(-c2c(F)cc(F)cc2F)c(Cl)nc2ncnn12 (stereo not shown) [I-1, 5-chloro-6-(2,4,6-trifluorophenyl)-7-(1-methyl-2-propen-1-yl)amino[1,2,4]triazolo[1,5-a]pyrimidine]
  leaf infection, visually determined in %: no infection
